The source of these data is publication PMC11639629, “Synthesis and Biological Evaluation of Deoxycyclophellitols as Human Retaining β‐Glucosidase Inhibitors” (Chemistry (Weinheim an Der Bergstrasse, Germany), 2024).

Usually IC50 stands for the concentration that gives 50% inhibition.

The subject of experiment [1] is endogenous GBA1 and overexpressed human GBA2 and GBA3. As to the kind of experiment: ABP labeling (ABPP) in lysates of GBA2/GBA3 overexpressing HEK293T cells, selectivity pattern. The class given is binding. Conditions: pH 6.0, 30 min. As to the method:
As a negative control, lysates of HEK293T cells with knocked‐out (KO) expression of GBA1 and GBA2 were incubated with a high concentration of each ABP. The observed selectivity patterns of most compounds were in line with the results of the fluorogenic substrate assay except for 50, which labeled GBA1 less potently than expected. […] For instance, besides labeling GBA2 and GBA3 (104.6 kDa and 53.6 kDa respectively), ABP 5 labels three major off‐target proteins (~45 kDa, ~55 kDa, and ~65 kDa), and these bands appear also in the experiments with the other deoxygenated ABPs (Figure 3B). Possibly, the deoxygenated ABPs are more hydrophobic compared to ABPs 1 and 3, causing them to more readily associate with hydrophobic protein patches and subsequently engage in reactions.
described previously.6,16
protease inhibitor cocktail (EDTA-free, Roche)).
The enzymes were incubated with 12.5
The substrate mixtures diluted in
with BODIPY fluorescent ABP 2.

Experiment [2] deals with T1, recombinant human GBA1 (rhGBA1) (Homo sapiens, UniProt P04062, R534H).
T1 sequence (P04062 40-536 R534H): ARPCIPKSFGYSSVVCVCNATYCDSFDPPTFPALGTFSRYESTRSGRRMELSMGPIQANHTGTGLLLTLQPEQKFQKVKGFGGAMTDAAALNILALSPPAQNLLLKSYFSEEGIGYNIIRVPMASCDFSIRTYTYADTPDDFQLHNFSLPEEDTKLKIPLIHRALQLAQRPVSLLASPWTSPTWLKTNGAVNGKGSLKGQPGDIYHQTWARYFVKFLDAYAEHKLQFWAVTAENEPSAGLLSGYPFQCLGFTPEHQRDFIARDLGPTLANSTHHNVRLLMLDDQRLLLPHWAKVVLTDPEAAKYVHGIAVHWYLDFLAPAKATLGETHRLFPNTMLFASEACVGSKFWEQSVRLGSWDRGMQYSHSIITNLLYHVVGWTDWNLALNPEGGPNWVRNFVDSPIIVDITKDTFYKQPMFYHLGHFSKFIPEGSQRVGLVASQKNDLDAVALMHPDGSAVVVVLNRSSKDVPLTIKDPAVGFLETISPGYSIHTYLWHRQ
As to the kind of experiment: fluorogenic substrate assay (4-MU-β-D-Glu hydrolysis), rhGBA1.
Procedure: Next, all new compounds were screened on their GBA1/GBA2/GBA3 inhibitory potency in a fluorogenic substrate assay (enzyme‐mediated hydrolysis of the fluorogenic substrate, 4‐methylumbelliferyl β‐D‐glucopyranoside; 4‐MU‐β‐D‐Glu). […] The IC50 values were determined after incubation of each individual compound with either recombinant human GBA1 (rhGBA1) or lysates of HEK293T cells overexpressing GBA2 or GBA3.
All assays were performed in 96-well plates (Greiner, black, flat-bottomed) at 37 °C. For GBA1, 3.5 ng of rhGBA1 (Imiglucerase,
Sanofi Genzyme) was dissolved in 12.5 μL McIlvaine buffer (150 mM citric acid-Na2HPO4, pH 5.2), supplemented with 0.1%
(v/v) Triton X-100, and 0.2% (w/v) sodium taurocholate, 0.1% (w/v) bovine serum albumin (BSA). Lysates of GBA1/GBA2 KO
HEK293T cells overexpressing GBA2 or GBA3 were prepared by sonication on ice with Polytron PT 1300D son icator
(Kinematica) in potassium phosphate buffer (25 mM K2HPO4/KH2PO4, pH 6.5, supplemented with 0.1% (v/v) Triton X-100 and protease inhibitor cocktail (EDTA-free, Roche)). The lysates were diluted to 12.5 μL in McIlvaine buffer (150 mM, pH 5.8 for
GBA2 or pH 6.0 for GBA3) supplemented with 0.1% (w/v) bovine serum albumin (BSA). The enzymes were incubated with 12.5
μL solution of inhibitors in McIlvaine buffer (150 mM, pH appropriate for each enzyme, final concentration 1% DMSO) at 37 °C
for 30 minutes (-configured aziridines and ABP 3) or 3 hours (epoxides and -configured aziridines). This was followed by
incubation of the samples with 100 μL of fluorogenic substrate mixtures for 30 minutes. The substrate mixtures diluted in
McIlvaine buffer (supplemented with 0.1% (w/v) BSA) at optimal pH for each enzyme were as follows: GBA1, 3.75 mM 4-MU-
-D-glucopyranoside (Glycosynth) at pH 5.2, supplemented with 0.2% (w/v) sodium taurocholate, 0.1% (v/v) Triton X-100, 0.1%
(w/v) bovine serum albumin (BSA); GBA2, 4-MU--D-glucopyranoside (3.75 mM) at pH 5.8; GBA3, 4-MU--D-glucopyranoside
(3.75 mM) at pH 6.0. After stopping the enzyme reaction with 200 μL 1 M NaOH-glycine (pH 10.3), 4-methylumbelliferone
fluorescence was measured with a fluorimeter LS55 (Perkin Elmer) with λEX 366 nm and λEM 445 nm. Enzyme activities were
determined by subtraction of background (measured for incubations without enzyme), normalized with enzyme activity of the
control sample (vehicle incubation) and curve-fitted to inhibitor concentrations using GraphPad Prism 9.0 software by the
[inhibitor] vs. response - variable slope (four parameters) method to determine IC 50 values.
values from triplicate or duplicate experiments (n = 3 biological replicates) and error ranges indicate standard deviation (SD).

A further experiment concerns the target T2, GBA3 (Homo sapiens, UniProt Q9H227).
T2 sequence (Q9H227 1-469): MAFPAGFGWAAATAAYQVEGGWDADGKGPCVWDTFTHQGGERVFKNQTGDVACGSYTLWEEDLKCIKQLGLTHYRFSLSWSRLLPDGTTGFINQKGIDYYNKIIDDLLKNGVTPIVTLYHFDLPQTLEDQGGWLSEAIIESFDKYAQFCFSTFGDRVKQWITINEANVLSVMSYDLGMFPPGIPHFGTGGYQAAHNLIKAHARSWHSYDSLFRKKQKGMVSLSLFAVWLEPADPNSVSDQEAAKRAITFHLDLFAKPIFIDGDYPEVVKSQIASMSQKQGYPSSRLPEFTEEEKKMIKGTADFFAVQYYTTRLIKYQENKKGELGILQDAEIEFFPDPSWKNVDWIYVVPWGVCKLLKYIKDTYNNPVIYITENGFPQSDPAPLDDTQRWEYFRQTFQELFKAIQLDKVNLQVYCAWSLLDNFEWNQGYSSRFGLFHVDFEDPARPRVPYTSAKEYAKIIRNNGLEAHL

In a further experiment the target is T3, GBA2 (Homo sapiens, UniProt Q9HCG7).
T3 sequence (Q9HCG7 1-927): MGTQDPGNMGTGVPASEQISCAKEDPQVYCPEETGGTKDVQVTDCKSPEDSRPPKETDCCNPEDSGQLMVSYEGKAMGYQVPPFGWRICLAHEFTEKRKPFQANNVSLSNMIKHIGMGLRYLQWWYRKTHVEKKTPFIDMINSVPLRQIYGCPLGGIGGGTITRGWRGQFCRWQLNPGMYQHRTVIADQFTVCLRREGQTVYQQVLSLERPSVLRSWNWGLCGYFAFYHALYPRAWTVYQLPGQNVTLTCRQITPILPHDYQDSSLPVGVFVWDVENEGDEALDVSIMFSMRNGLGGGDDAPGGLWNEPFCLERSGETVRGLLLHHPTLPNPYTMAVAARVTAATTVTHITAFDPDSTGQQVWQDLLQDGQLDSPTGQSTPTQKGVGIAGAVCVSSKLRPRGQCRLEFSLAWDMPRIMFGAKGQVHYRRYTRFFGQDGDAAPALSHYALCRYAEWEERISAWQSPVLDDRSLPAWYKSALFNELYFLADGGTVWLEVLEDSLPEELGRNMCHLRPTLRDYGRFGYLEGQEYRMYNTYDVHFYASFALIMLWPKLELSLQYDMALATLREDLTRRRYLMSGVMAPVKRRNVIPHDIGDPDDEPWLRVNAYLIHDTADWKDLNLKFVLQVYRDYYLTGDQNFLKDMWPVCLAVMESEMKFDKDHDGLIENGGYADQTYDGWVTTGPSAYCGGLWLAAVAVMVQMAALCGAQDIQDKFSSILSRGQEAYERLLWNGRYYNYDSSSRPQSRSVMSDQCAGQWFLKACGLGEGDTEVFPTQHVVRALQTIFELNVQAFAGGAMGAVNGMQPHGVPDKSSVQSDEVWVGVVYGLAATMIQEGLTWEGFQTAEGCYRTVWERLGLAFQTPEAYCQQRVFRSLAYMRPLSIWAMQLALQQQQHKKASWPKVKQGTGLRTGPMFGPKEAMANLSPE

For the compound `CN1/C(=C/C=C/C=C/C2=[N+](CCCCCC(=O)NCc3cn(CCCCCCCCN4[C@@H]5[C@H](CO)[C@@H](O)[C@H](O)[C@@H](O)[C@@H]54)nn3)c3ccccc3C2(C)C)C(C)(C)c2ccccc21` (stereo partly drawn) [Compound 1], in experiment [1], the “target glucosidases labeled by the ABP” value is on record as “modifies all three GBAs”. The IC50 in experiment [2] worked out at 0.54 ± 0.21 nM; against GBA3 it was 31 ± 5 nM; against GBA2, 145 ± 26 nM.
Take `CN1/C(=C/C=C/C=C/C2=[N+](CCCCCC(=O)NCc3cn(C[C@@H]4[C@@H](O)[C@H](O)[C@@H](O)[C@@H]5O[C@H]45)nn3)c3ccccc3C2(C)C)C(C)(C)c2ccccc21` [Compound 3]: the half-maximal inhibitory concentration (IC50) in experiment [2] is 42 ± 4 nM; at GBA3, above 15000 nM; on GBA2, above 15000 nM.
For the compound `CN1/C(=C/C=C/C=C/C2=[N+](CCCCCC(=O)NCc3cn(CCCCCCCCN4[C@@H]5[C@H](CO)C[C@H](O)[C@@H](O)[C@@H]54)nn3)c3ccccc3C2(C)C)C(C)(C)c2ccccc21` (stereo partly drawn) [Compound 4], in experiment [1], the “target glucosidases labeled by the ABP” value is “label all three target glucosidases”. The 50% inhibitory concentration (IC50) in experiment [2] was 260 ± 10 nM; against GBA3 it was 260 ± 60 nM; on GBA2 it was 240 ± 30 nM.
Turning to `CN1/C(=C/C=C/C=C/C2=[N+](CCCCCC(=O)NCc3cn(CCCCCCCCN4[C@@H]5[C@H](CO)C[C@H](O)C[C@@H]54)nn3)c3ccccc3C2(C)C)C(C)(C)c2ccccc21` (stereo partly drawn) [Compound 5], the “target glucosidases labeled by the ABP” value in experiment [1] is listed as “GBA2 and, to a lesser extent, GBA3”. The IC50 in experiment [2] is 32000 ± 3000 nM; against GBA3 it was 1230 ± 80 nM; on GBA2, 230 ± 10 nM.
